Source: ChEMBL document CHEMBL1150924, “Triterpenes and saponins from Rudgea viburnioides” (J Nat Prod, 1998)
Active and inactive are the calls of the source. No cut-off for these calls is given here.

Tests used:
Format in all cases: functional, organism-based
[1] = tested on: Cladosporium cladosporioides; experiment: Antifungal activity against Cladosporium cladosporioides at 1 ug by TLC bioassay
[2] = tested on: Cladosporium cladosporioides; experiment: Antifungal activity against Cladosporium cladosporioides at 50 ug by TLC bioassay
[3] = tested on: Cladosporium cladosporioides; experiment: Antifungal activity against Cladosporium cladosporioides at 5 ug by TLC bioassay

With `Clc1ccc(COC(Cn2ccnc2)c2ccc(Cl)cc2Cl)c(Cl)c1` (stereo not drawn) as the compound, how does the Activity [1] read?
The Activity was “Active”.

For `C[C@@H]1CC[C@]2(C)CC[C@]3(C)C(=CC[C@@H]4[C@@]5(C)C[C@@H](O)[C@H](O)C(CO)(CO)[C@@H]5CC[C@]43C)[C@@H]2[C@]1(C)O`, which Activity [2] is on record?
Its Activity is “Active”.

For NYSTATIN, which Activity [3] is on record?
The Activity was “Active”.
